Assays:
[1] = molecular target: T1, androgen receptor (AR-LBD) (Rattus norvegicus, UniProt P15207); assay: Evaluation of androgen receptor affinity (PolarScreen Androgen Receptor Competitor Assay Kit, Red; fluorescence polarization); conditions: 22° C. for 5 hours, relative to binding rate of 1 μM DHT, read-out: AR affinity (pEC50) (converted)
T1 construct: 5 μL of 2×AR-LBD/Fluoromone AL Red Complex contained in the kit; purchased Invitrogen
T1 sequence (P15207 651-882 limits assumed): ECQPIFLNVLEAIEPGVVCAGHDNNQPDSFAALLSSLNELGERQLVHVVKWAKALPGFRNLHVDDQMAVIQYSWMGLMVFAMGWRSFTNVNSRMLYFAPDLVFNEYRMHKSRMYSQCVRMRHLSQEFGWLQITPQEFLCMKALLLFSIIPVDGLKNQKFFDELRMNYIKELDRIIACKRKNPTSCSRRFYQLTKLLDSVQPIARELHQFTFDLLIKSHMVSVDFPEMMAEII
Summary of the method: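 pEC50 values reflect tracer displacement from AR-LBD (Fluoromone AL Red complex) measured by fluorescence polarization after 5 h at 22° C, normalized to 1 μM DHT and fitted with a 4-parameter model.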

human androgen receptor = molecular target: T2, human androgen receptor (Homo sapiens, UniProt P10275); assay: Reporter assay of an androgen receptor responsive sequence (luciferase, transiently transfected HEK293 cells); assay type: cell-based; conditions: 24 hours incubation, relative to activity of 100 nM DHT, read-out: AR transcriptive activity (pEC50) (converted)
T2 construct: expressed in transfected cells; host or cells: HEK293
T2 sequence (P10275 1-920): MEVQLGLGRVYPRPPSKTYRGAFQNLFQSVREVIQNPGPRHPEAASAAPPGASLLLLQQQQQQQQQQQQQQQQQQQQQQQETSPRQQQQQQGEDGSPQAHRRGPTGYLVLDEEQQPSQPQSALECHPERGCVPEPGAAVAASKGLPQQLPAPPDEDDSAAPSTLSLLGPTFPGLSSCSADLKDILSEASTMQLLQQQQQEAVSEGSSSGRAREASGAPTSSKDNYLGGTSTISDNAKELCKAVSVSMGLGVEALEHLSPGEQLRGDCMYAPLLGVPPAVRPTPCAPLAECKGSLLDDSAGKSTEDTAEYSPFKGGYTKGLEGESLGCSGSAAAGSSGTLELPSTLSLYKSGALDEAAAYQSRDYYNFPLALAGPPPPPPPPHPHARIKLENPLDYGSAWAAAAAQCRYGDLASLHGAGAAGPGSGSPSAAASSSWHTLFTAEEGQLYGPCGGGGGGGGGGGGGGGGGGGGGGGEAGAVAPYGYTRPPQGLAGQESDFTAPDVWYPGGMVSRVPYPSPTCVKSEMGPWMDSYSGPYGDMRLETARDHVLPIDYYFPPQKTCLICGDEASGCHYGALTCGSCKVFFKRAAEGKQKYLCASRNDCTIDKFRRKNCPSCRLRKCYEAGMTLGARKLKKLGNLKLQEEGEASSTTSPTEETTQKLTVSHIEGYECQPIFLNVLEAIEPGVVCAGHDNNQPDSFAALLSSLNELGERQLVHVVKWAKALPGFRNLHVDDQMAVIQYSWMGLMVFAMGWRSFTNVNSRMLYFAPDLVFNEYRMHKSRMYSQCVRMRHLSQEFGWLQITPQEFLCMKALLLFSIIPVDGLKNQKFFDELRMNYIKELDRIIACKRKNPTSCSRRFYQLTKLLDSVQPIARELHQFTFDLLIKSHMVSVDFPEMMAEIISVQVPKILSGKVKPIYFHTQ
Summary of the method: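 HEK293 cells transiently transfected for 3 h with ARE-firefly luciferase, full-length human AR and TK-Renilla plasmids, then exposed to compound for 24 h at 37 °C in 5% charcoal-treated FBS/DMEM. Dual-Glo luminescence read; pEC50 from 4-parameter fit relative to 100 nM DHT.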

| EC50 [1] | EC50 (human androgen receptor) | SMILES |
| --- | --- | --- |
| 158 nM | 1580 nM | Cc1sc(N(CCc2cccc(O)c2)c2ccc(C#N)cc2)nc1C(=O)NS(C)(=O)=O [Compound 401, 2-[4-cyano-N-[2-(3-hydroxyphenyl)ethyl]anilino]-5-methyl-N-methylsulfonyl-thiazole-4-carboxamide] |
| 39.8 nM | 50.1 nM | CS(=O)(=O)NC(=O)c1nc(N(Cc2ccc3occc3c2)c2ccc(C#N)cc2)sc1Br [Example 221, 2-[N-(benzofuran-5-ylmethyl)-4-cyano-anilino]-5-bromo-N-methylsulfonyl-thiazole-4-carboxamide] |
| 251 nM | 251 nM | Cc1sc(N(CC[C@@H]2CCCC[C@@H]2O)c2ccc(C#N)cc2)nc1C(=O)NS(C)(=O)=O (racemic) [Compound 409, 2-[4-cyano-N-[2-[cis-2-hydroxycyclohexyl]ethyl]anilino]-5-methyl-N-methylsulfonyl-thiazole-4-carboxamide] |
| 15.8 nM | 50.1 nM | Cc1sc(N(Cc2ccccc2SC(F)F)c2ccc(C#N)cc2)nc1C(=O)NS(C)(=O)=O [Compound 79, 2-[4-cyano-N-[[2-(difluoromethylsulfanyl)phenyl]methyl]anilino]-5-methyl-N-methylsulfonyl-thiazole-4-carboxamide] |
| 79.4 nM | 5010 nM | COc1cccc(CCN(Cc2ccccc2)c2nc(C(=O)NS(C)(=O)=O)c(C)s2)c1 [Example 308, 2-[benzyl-[2-(3-methoxyphenyl)ethyl]amino]-5-methyl-N-methylsulfonyl-thiazole-4-carboxamide] |
| 63.1 nM | 3160 nM | Cc1sc(N(CCc2ccc(Cl)cc2)Cc2ccc(Cl)cc2)nc1C(=O)NS(=O)(=O)C1CC1 [Compound 694, 2-[2-(4-chlorophenyl)ethyl-[(4-chlorophenyl)methyl]amino]-N-cyclopropylsulfonyl-5-methyl-thiazole-4-carboxamide] |
| 50.1 nM | 398 nM | Cc1sc(N(CCc2ccc(Cl)c(Cl)c2)Cc2ccccc2)nc1C(=O)NS(C)(=O)=O [Compound 710, 2-[benzyl-[2-(3,4-dichlorophenyl)ethyl]amino]-5-methyl-N-methylsulfonyl-thiazole-4-carboxamide] |
| 501 nM | > 10000 nM | Cc1sc(N(CCC2CCCCC2)Cc2ccc(Cl)cc2)nc1C(=O)NS(=O)(=O)C(F)(F)F [Compound 723, 2-[(4-chlorophenyl)methyl-(2-cyclohexylethyl)amino]-5-methyl-N-(trifluoromethylsulfonyl)thiazole-4-carboxamide] |
| 1000 nM | 3160 nM | Cc1sc(N(Cc2ccc3nccnc3c2)c2ccc(C#N)cc2)nc1C(=O)NS(C)(=O)=O [Compound 404, 2-[4-cyano-N-(quinoxalin-6-ylmethyl)anilino]-5-methyl-N-methylsulfonyl-thiazole-4-carboxamide] |
| 25.1 nM | 398 nM | Cc1sc(N(CCCC(C)C)c2ccc(C#N)cc2)nc1C(=O)NS(C)(=O)=O [Compound 438, 2-(4-cyano-N-isohexyl-anilino)-5-methyl-N-methylsulfonyl-thiazole-4-carboxamide] |
| > 2000 nM | > 10000 nM | Cc1sc(N(Cc2cccc(=O)[nH]2)c2ccc(C#N)cc2)nc1C(=O)NS(C)(=O)=O [Compound 493, 2-[4-cyano-N-[(6-oxo-1H-pyridin-2-yl)methyl]anilino]-5-methyl-N-methylsulfonyl-thiazole-4-carboxamide] |
| 39.8 nM | 20 nM | Cc1sc(N(Cc2ccc(Br)cc2)c2ccc(C#N)cc2)nc1C(=O)NS(C)(=O)=O [Compound 129, 2-[N-[(4-bromophenyl)methyl]-4-cyano-anilino]-5-methyl-N-methylsulfonyl-thiazole-4-carboxamide] |
| 100 nM | 794 nM | Cc1sc(N(CCc2ccccc2Cl)c2ccc(C#N)cc2)nc1C(=O)NS(C)(=O)=O [Compound 140, 2-[N-[2-(2-chlorophenyl)ethyl]-4-cyano-anilino]-5-methyl-N-methylsulfonyl-thiazole-4-carboxamide] |
| 63.1 nM | 501 nM | Cc1sc(N(Cc2ccc(Br)cc2Cl)c2ccc(C#N)cc2)nc1C(=O)NS(C)(=O)=O [Example 183, 2-[N-[(4-bromo-2-chloro-phenyl)methyl]-4-cyano-anilino]-5-methyl-N-methylsulfonyl-thiazole-4-carboxamide] |
| 50.1 nM | 1000 nM | Cc1oc(N(CCc2ccc(OC(F)(F)F)cc2)Cc2nc(C3CC3)no2)nc1C(=O)NS(C)(=O)=O [Compound 560, 2-[(3-cyclopropyl-1,2,4-oxadiazol-5-yl)methyl-[2-[4-(trifluoromethoxy)phenyl]ethyl]amino]-5-methyl-N-methylsulfonyl-oxazole-4-carboxamide] |
| 39.8 nM | 79.4 nM | CS(=O)(=O)NC(=O)c1nc(N(Cc2ccc(OC(F)(F)F)cc2)c2ccc(C#N)cc2)sc1Cl [Example 274, 5-chloro-2-[4-cyano-N-[[4-(trifluoromethoxy)phenyl]methyl]anilino]-N-methylsulfonyl-thiazole-4-carboxamide] |
| 39.8 nM | 1000 nM | Cc1sc(N(Cc2ccc(OC(F)(F)F)cc2)c2ccc(C#N)cc2)nc1C(=O)NS(=O)(=O)CCCC#N [Example 199, N-(3-cyanopropylsulfonyl)-2-[4-cyano-N-[[4-(trifluoromethoxy)phenyl]methyl]anilino]-5-methyl-thiazole-4-carboxamide] |
| 398 nM | 1580 nM | CCc1oc(N(Cc2ccc(Br)cn2)c2ccc(C#N)cc2)nc1C(=O)NS(C)(=O)=O [Compound 636, 2-[N-[(5-bromo-2-pyridyl)methyl]-4-cyano-anilino]-5-ethyl-N-methylsulfonyl-oxazole-4-carboxamide] |
| 63.1 nM | 63.1 nM | Cc1sc(N(Cc2cc3ccccc3o2)c2ccc(C#N)cc2)nc1C(=O)NS(C)(=O)=O [Compound 479, 2-[N-(benzofuran-2-ylmethyl)-4-cyano-anilino]-5-methyl-N-methylsulfonyl-thiazole-4-carboxamide] |
